Earlier results as cited in patent publication US4996197A, “Pharmaceutical and/or cosmetic composition for local use containing Rhamsan gum” (Laboratoires Merck Sharp & Dohme-Chibret, priority 1987, dated 1991).

Details: with polyvinyl alcohol; Maichuk, Am. J. Ophthal, 74: 694, 1972

Row | Compound | pharmacological response to medicinal products
1 | Nc1ccc(S(=O)(=O)[N-]c2cccnn2)cc1.[Na+] [sulphapyridazine sodium] | enhances the pharmacological response
2 | erythrocin propionate | enhances the pharmacological response
